Data set [1] in a line: Optimising the candidate formulations: excipient effects on ketoprofen movement through cattle skin in vitro.
The conditions of data set [2]: treated vs untreated cattle.
Method: Blood samples were analysed for cortisol and biomarkers once the study was completed.
A preliminary analysis of the proteins identified was undertaken using Principal Component Analysis (PCA) within the MarkerView software package (FIG. 21). This analysis looked at a comparison of groups for all time points (FIG. 21a), a comparison of dehorning vs. sham (FIG. 21b) and a comparison of treatment vs. placebo (FIG. 21c).
The nature of data set [3]: Clinical study (disbudding): behaviour ethogram, mixed effect Poisson / negative binomial models. Particulars: dehorned calves.
Method: Calf behaviour was monitored before and after dehoming in suitable time periods. The day before dehoming, the behaviour of all 36 calves were monitored for two hours to record the baseline variation, which was taken as 0 hour observation. Next day after dehoming, behaviour was recorded at 2-4 hour, 4-8 hour, 8-12 hour, 24 hour and 48 hours. There were 12 behaviour parameters recorded, as follows: Head shaking, Ear flicking, Tail wagging. Head rubbing, lying, ruminating, neck extending, grooming, walking, vocalising, feeding and drinking.
The method used to identify those variables was Confirmatory Factor Analysis (CFA) within Structural Equation Modelling Framework (SEM).
Separate models were used for each of the observed animal behavioural traits (FIG. 19). A mixed effect Poisson model with an animal fitted as random intercepts and time as random slope, and unstructured error term for the residuals. Behaviours trait at baseline (time 0) was centred and added to the fixed effect part of the model (essentially turning the model into a random slope model too). […] Overdispersed models (also those with excess zeros) were refitted using a negative binomial model.
Experimental time was fitted as a categorical variable to derive estimated at each time point, time 2 hr was used as the reference category. Treatment was also fitted as categorical variable, placebo as reference category. […]
Data set [4] can be described thus: Screening of NSAID and vehicle combinations: penetration through cattle skin in vitro (Table 13). As to the method:
Hair was removed using an electric clipper and the subcutaneous fat and musculature carefully trimmed away before the skin was cut into circular sections (approximately 2 cm diameter) using a metal wad punch, and placed in airtight ziplock bags, stored at −20° C. within 5 hr of slaughter.
The skin samples were defrosted immediately prior to use and mounted on Franz diffusion cells. […] A glass cover slip was applied to each donor chamber to prevent evaporation of the donor solution. Samples (200 μL) were collected at regular intervals from the receptor chambers via the sampling port and immediately replenished with equal volumes of fresh receptor solution. At the completion of each study, the diffusions cells were dismantled and the skin discs were rinsed and stored.

Data set [5] can be described thus: Solubility / precipitation of NSAIDs in the vehicles tested. To be noted: vehicles screened.
Where [6] appears, read: 10% Tolfenamic acid, vehicle KET67 (Eucalyptus oil, 70% 1,8-cineole), sample time 4 hrs.
The mark [7] stands for this setting: 10% Tolfenamic acid, vehicle KET67 (Eucalyptus oil, 70% 1,8-cineole), sample time 6 hrs.
Setting [8] is: 10% Tolfenamic acid, vehicle KET67 (Eucalyptus oil, 70% 1,8-cineole), sample time 8 hrs.
[9] abbreviates: 10% Tolfenamic acid, vehicle KET68 (propylene glycol, 100% PPG), sample time 4 hrs.
Setting [10] is: Tolfenamic acid 10% in vehicle KET51: Ethanol 70% EthOH, Propylene glycol 30% PPG, terpene None, 0.1M citrate, sample time 6 hrs.
Where [11] appears, read: Tolfenamic acid 10% in vehicle KET51: Ethanol 70% EthOH, Propylene glycol 30% PPG, terpene None, 0.1M citrate, sample time 8 hrs.
Setting [12] is: Tolfenamic acid 10% in vehicle KET52: Ethanol 70% EthOH, Propylene glycol 30% PPG, Menthol 50 mg/mL, 0.1M citrate, sample time 0.5 hrs.
Where [13] appears, read: Tolfenamic acid 10% in vehicle KET52: Ethanol 70% EthOH, Propylene glycol 30% PPG, Menthol 50 mg/mL, 0.1M citrate, sample time 2 hrs.
Setting [14] is: Tolfenamic acid 10% in vehicle KET52: Ethanol 70% EthOH, Propylene glycol 30% PPG, Menthol 50 mg/mL, 0.1M citrate, sample time 4 hrs.
Setting [15] is: Tolfenamic acid 10% in vehicle KET52: Ethanol 70% EthOH, Propylene glycol 30% PPG, Menthol 50 mg/mL, 0.1M citrate, sample time 6 hrs.
The mark [16] stands for this setting: Tolfenamic acid 10% in vehicle KET52: Ethanol 70% EthOH, Propylene glycol 30% PPG, Menthol 50 mg/mL, 0.1M citrate, sample time 8 hrs.
Setting [17] is: Tolfenamic acid 50%, vehicle KET39: Ethanol 50% EthOH, no co-solvent, Menthol 50 mg/mL, sample time 0.5 hrs, replicates 1-3.
The mark [18] stands for this setting: Tolfenamic acid 50%, vehicle KET39: Ethanol 50% EthOH, no co-solvent, Menthol 50 mg/mL, sample time 2 hrs, replicates 1-3.
Setting [19] is: Tolfenamic acid 50%, vehicle KET39: Ethanol 50% EthOH, no co-solvent, Menthol 50 mg/mL, sample time 4 hrs, replicates 1-3.
[20] abbreviates: Vehicle KET52: 70% EthOH, 30% PPG (propylene glycol), Menthol 50 mg/mL, 0.1M citrate, drug conc 10%, sample time 0.5 hrs.
The mark [21] stands for this setting: Vehicle KET52: 70% EthOH, 30% PPG (propylene glycol), Menthol 50 mg/mL, 0.1M citrate, drug conc 10%, sample time 8 hrs.
The mark [22] stands for this setting: Vehicle KET53: 70% EthOH, 30% OA (oleyl alcohol), no terpene, 0.1M citrate, drug conc 10%, sample time 0.5 hrs.
The mark [23] stands for this setting: Vehicle KET53: 70% EthOH, 30% OA (oleyl alcohol), no terpene, 0.1M citrate, drug conc 10%, sample time 8 hrs.
Where [24] appears, read: Vehicle KET54: 100% SRArl (Superfine Arlasolve), 0.1M citrate, drug conc 10%, sample time 6 hrs.

Several values for one entry are separate records, joined by “and”; a condition that tells them apart may be missing. Equal entries are not always repeated.

Turning to `CCO` [Ethanol, ethanol], the “effect of excipient on ketoprofen/NSAID penetration through cattle skin” value in data set [1] is reported as “significantly enhanced penetration compared to other alcohols”.

With `CCCCCCCCCCCCCC(=O)OC(C)C` [IPM, isopropyl myristate], the “effect of excipient on ketoprofen/NSAID penetration through cattle skin” value in data set [1] is on record as “proving the more effective”.

Regarding `CC(C)O` [isopropanol], the “effect of excipient on ketoprofen/NSAID penetration through cattle skin” value in data set [1] is given as “did not perform as well as ethanol”.

`CC(C(=O)O)c1cccc(C(=O)c2ccccc2)c1` (centres unmarked) [ketoprofen]: the “effect on key biomarkers of pain and inflammation” value in data set [2] was “significantly affected key biomarkers of pain and inflammation”. The “head shaking compared with the placebo group” value in data set [3] is recorded as “significantly different from the placebo group”.

For the compound `Cc1c(Cl)cccc1Nc1ccccc1C(=O)O` [tolfenamic acid], the analysis conc in data set [4] (10% Tolfenamic acid, vehicle KET66 (50% Ethanol, Eucalyptus oil 21% 1,8-cineole, 0.1M citrate), sample time 0.5 hrs) is 0.004; in data set [4] (10% Tolfenamic acid, vehicle KET67 (Eucalyptus oil, 70% 1,8-cineole), sample time 0.5 hrs), 0.005 and 0.003; in data set [4] (setting [6]) it was 0.01 and 0.005; in data set [4] (setting [7]), 0.006 and 0.005 and 0.008; in data set [4] (setting [8]), 0.006 and 0.005 and 0.004; in data set [4] (10% Tolfenamic acid, vehicle KET68 (propylene glycol, 100% PPG), sample time 0.5 hrs) it was 0.002. Moreover, the analysis conc in data set [4] (setting [9]) is 0.007 and 0.004; in data set [4] (10% Tolfenamic acid, vehicle KET68 (propylene glycol, 100% PPG), sample time 6 hrs) it was 0.002; in data set [4] (Tolfenamic acid 10% in vehicle KET51: Ethanol 70% EthOH, Propylene glycol 30% PPG, terpene None, 0.1M citrate, sample time 2 hrs), 0.011 and 0.01; in data set [4] (Tolfenamic acid 10% in vehicle KET51: Ethanol 70% EthOH, Propylene glycol 30% PPG, terpene None, 0.1M citrate, sample time 4 hrs), 0.004 and 0.003; in data set [4] (setting [10]), 0.004 and 0.005; in data set [4] (setting [11]) it was 0.006 and 0.005 and 0.004. Moreover, the analysis conc in data set [4] (setting [12]) was 0.003; in data set [4] (setting [13]) it was 0.004 and 0.002; in data set [4] (setting [14]), 0.003; in data set [4] (setting [15]) it was 0.002; in data set [4] (setting [16]), 0.004; in data set [4] (setting [17]) it was 0.006. Besides, the analysis conc is 0.009 in data set [4] (setting [18]); 0.004 in data set [4] (setting [19]); 0.002 in data set [4] (setting [20]); 0.004 in data set [4] (Vehicle KET52: 70% EthOH, 30% PPG (propylene glycol), Menthol 50 mg/mL, 0.1M citrate, drug conc 10%, sample time 4 hrs); 0.003 in data set [4] (Vehicle KET52: 70% EthOH, 30% PPG (propylene glycol), Menthol 50 mg/mL, 0.1M citrate, drug conc 10%, sample time 6 hrs); 0.007 and 0.004 in data set [4] (setting [21]). The analysis conc in data set [4] (setting [22]) is 0.002; in data set [4] (Vehicle KET53: 70% EthOH, 30% OA (oleyl alcohol), no terpene, 0.1M citrate, drug conc 10%, sample time 2 hrs) it was 0.005; in data set [4] (setting [23]) it was 0.047 and 0.08 and 0.04; in data set [4] (Vehicle KET54: 100% SRArl (Superfine Arlasolve), 0.1M citrate, drug conc 10%, sample time 0.5 hrs) it was 0.002; in data set [4] (setting [24]) it was 0.003 and 0.002 and 0.004. The Concentration was 0.03 µg/mL and 0.015 µg/mL in data set [4] (setting [6]); 0.018 µg/mL and 0.015 µg/mL and 0.024 µg/mL in data set [4] (setting [7]); 0.018 µg/mL and 0.015 µg/mL and 0.012 µg/mL in data set [4] (setting [8]); 0.021 µg/mL and 0.012 µg/mL in data set [4] (setting [9]); 0.012 µg/mL and 0.015 µg/mL in data set [4] (setting [10]); 0.018 µg/mL and 0.015 µg/mL and 0.012 µg/mL in data set [4] (setting [11]). In addition, the “Concentration” value in data set [4] (setting [12]) is 0.009 µg/mL; in data set [4] (setting [13]), 0.012 µg/mL and 0.006 µg/mL; in data set [4] (setting [14]), 0.009 µg/mL; in data set [4] (setting [15]), 0.006 µg/mL; in data set [4] (setting [16]), 0.012 µg/mL; in data set [4] (Tolfenamic acid 50%, vehicle KET34: Ethanol 70% EthOH, no co-solvent, Menthol 50 mg/mL, sample time 0.5 hrs, replicates 1-3) it was 0 µg/mL. For the same compound, the Concentration in data set [4] (Tolfenamic acid 50%, vehicle KET34: Ethanol 70% EthOH, no co-solvent, Menthol 50 mg/mL, sample time 2 hrs, replicates 1-3) is 0 µg/mL; in data set [4] (Tolfenamic acid 50%, vehicle KET34: Ethanol 70% EthOH, no co-solvent, Menthol 50 mg/mL, sample time 4 hrs, replicates 1-3), 0 µg/mL; in data set [4] (Tolfenamic acid 50%, vehicle KET34: Ethanol 70% EthOH, no co-solvent, Menthol 50 mg/mL, sample time 6 hrs, replicates 1-3), 0 µg/mL; in data set [4] (Tolfenamic acid 50%, vehicle KET34: Ethanol 70% EthOH, no co-solvent, Menthol 50 mg/mL, sample time 8 hrs, replicates 1-3), 0 µg/mL; in data set [4] (setting [17]) it was 0 μg/mL (2×) and 0.018 μg/mL; in data set [4] (setting [18]), 0 μg/mL (2×) and 0.027 μg/mL. Moreover, the Concentration in data set [4] (setting [19]) is 0.012 μg/mL and 0 μg/mL (2×); in data set [4] (Tolfenamic acid 50%, vehicle KET39: Ethanol 50% EthOH, no co-solvent, Menthol 50 mg/mL, sample time 6 hrs, replicates 1-3), 0 µg/mL; in data set [4] (Tolfenamic acid 50%, vehicle KET39: Ethanol 50% EthOH, no co-solvent, Menthol 50 mg/mL, sample time 8 hrs, replicates 1-3) it was 0 µg/mL; in data set [4] (setting [20]) it was 0.006 µg/mL; in data set [4] (Vehicle KET52: 70% EthOH, 30% PPG (propylene glycol), Menthol 50 mg/mL, 0.1M citrate, drug conc 10%, sample time 2 hrs), 0 µg/mL; in data set [4] (setting [21]), 0.021 µg/mL and 0.012 µg/mL. In addition, the Concentration in data set [4] (setting [22]) is 0.006 µg/mL; in data set [4] (setting [23]) it was 0.141 µg/mL and 0.24 µg/mL and 0.12 µg/mL; in data set [4] (Vehicle KET54: 100% SRArl (Superfine Arlasolve), 0.1M citrate, drug conc 10%, sample time 2 hrs), 0 µg/mL; in data set [4] (Vehicle KET54: 100% SRArl (Superfine Arlasolve), 0.1M citrate, drug conc 10%, sample time 4 hrs), 0 µg/mL; in data set [4] (setting [24]), 0.009 µg/mL and 0.006 µg/mL. Besides, the solubility in vehicles result in data set [5] is “not particularly soluble in most of the vehicles tested”; in data set [5] (listed as Tolfenamic acid), “poorly soluble in almost every vehicle tested”.

The values above are taken from patent US20250213512A1, “TRANSDERMAL ANALGESIC FORMULATION” (MEAT & LIVESTOCK AUSTRALIA LTD, priority 2017, published 2025).
